Assay results as given in patent US20070117868A1, “Use of n-arylhydrazine derivatives for combating non-crop pests” (priority 2004, published 2007).

Columns and labels:
Type in all cases: in vivo
Culex quinquefasciatus [1] = assay: Activity via glass contact, house mosquito; conditions: rate 0.5 ppm
Protocol: (§1) 1. Activity Against Argentine Ant, Harvester Ant, Acrobat Ant, Carpenter Ant, Fire Ant, House Fly, Stable Fly, Flesh Fly, Yellowfever Mosquito, House Mosquito, Malaria Mosquito, German Cockroach, Cat Flea, and Brown Dog Tick Via Glass Contact
(§2) Glass vials (20 ml scintillation vials) were treated with 0.5 ml of a solution of active ingredient in acetone. Each vial was rolled uncapped for ca. 10 minutes to allow the a.i. to completely coat the vial and to allow for full drying of the acetone. Insects or ticks were placed into each vial.

Crematogaster spp. = assay: Activity via soil contact, acrobat ant; conditions: rate 0.01 w %
Protocol: (§3) 2. Activity Against Argentine Ant, Acrobat Ant, Carpenter Ant, Fire Ant, and Eastern Subterranean Termite Via Soil Contact
(§4) For ants, tests were conducted in Petri dishes. A thin layer of 1% agar in water was dispensed into the dishes and Florida sandy soil was spread over the agar (5 g for the small dishes and 11 g for the larger dishes). The active ingredient was dissolved in acetone and dispensed over the sand. Dishes were vented to evaporate the acetone, infested with ants, and covered. A 20% honey water solution was placed in each dish. The dishes were maintained at 22° C. and observed for mortality at various time intervals.

Sarcophaga sp. = assay: Activity via glass contact, flesh fly; conditions: rate 10 ppm
Protocol: as §1, §2

Solenopsis invicta [2] = assay: Activity via glass contact, fire ant; conditions: rate 10 ppm
Protocol: as §1, §2

Anopheles albimanus [3] = assay: Activity via glass contact, malaria mosquito; conditions: rate 1 ppm
Protocol: as §1, §2

Ctenocephalides felis = assay: Activity via glass contact, cat flea; conditions: rate 100 ppm
Protocol: as §1, §2

Stomoxys calcitrans = assay: Activity via glass contact, stable fly; conditions: rate 10 ppm
Protocol: as §1, §2

Solenopsis invicta [4] = assay: Activity via bait (corn grit), fire ant; conditions: rate 0.7 w %
Protocol: (§5) 3. Activity Against Argentine Ant, Acrobat Ant, Carpenter Ant, Fire Ant, House Fly, Eastern Subterranean Termite, Formosan Subterranean Termite, and German Cockroach Via Bait
For the fire ants, corn grit was used as a bait matrix. […] Petri dishes were supplied with a water source. Fire ant adults were placed into each dish. The next day, 250 mg of bait in bait containers was placed into the dishes.

Anopheles albimanus [5] = assay: Activity via water treatment, malaria mosquito larvae; conditions: rate 1.0 ppm
Protocol: (§6) 4. Activity Against Yellowfever Mosquito, Southern House Mosquito, and Malaria Mosquito Larvae Via Water Treatment
(§7) Well plates were used as test arenas. The active ingredient was dissolved in acetone and diluted with water to obtain the concentrations needed. The final solutions containing appr. 1% acetone were placed into each well. Approximately 10 mosquito larvae (4th-instars) in 1 ml water were added to each well. Larvae were fed one drop of liver powder each day. The dishes were covered and maintained at 22° C. Mortality was recorded daily and dead larvae and live or dead pupae were removed daily. At the end of the test remaining live larvae were recorded and percent mortality was calculated.

Solenopsis invicta [6] = assay: Activity via soil contact, fire ant; conditions: rate 0.01 w %
Protocol: as §3, §4

Musca domestica [7] = assay: Activity via glass contact, house fly; conditions: rate 10 ppm
Protocol: as §1, §2

Musca domestica [8] = assay: Activity via bait, house fly; conditions: rate 0.1 w %
Protocol: as §5
For house flies. Bait tests were conducted with adults aged 2-5 days post-emergence. Active ingredient in acetone was applied to a bait matrix consisting of a 1:1 mixture of powdered milk and sugar which was then allowed to dry. Assays were conducted in jars with 250 mg of bait in a pan placed in the bottom of each jar. House flies were placed into the bait jars which were covered. The test jars were held at 22° C.

Camponotus floridanus [9] = assay: Activity via soil contact, carpenter ant; conditions: rate 0.01 w %
Protocol: as §3, §4

Aedes aegypti [10] = assay: Activity via water treatment, yellowfever mosquito larvae; conditions: rate 10 ppm
Protocol: as §6, §7

Aedes aegypti [11] = assay: Activity via glass contact, yellowfever mosquito; conditions: rate 10 ppm
Protocol: as §1, §2

Culex quinquefasciatus [12] = assay: Activity via water treatment, house mosquito larvae; conditions: rate 10 ppm
Protocol: as §6, §7

Coptotermes formosanus = assay: Activity via bait (treated filter paper), Formosan termite; conditions: rate 0.1 w %
Protocol: as §5
For termites, active ingredient in acetone was applied to filter papers. % a.i. were calculated on basis of the weight of the filter paper. Acetone only was applied for untreated controls. Treated papers were vented to evaporate the acetone, moistened with […], and placed Petri dishes with sand. Water was added during the test as needed. Bioassays were conducted with one treated filter and ca. 30 termite workers per test dish. Test dishes were maintained at 25° C. and appr. 85% relative humidity and observed daily for mortality (dead or moribund insects) or intoxication. Dead or moribund insects were removed daily.

Camponotus floridanus [13] = assay: Activity via glass contact, carpenter ant; conditions: rate 10 ppm
Protocol: as §1, §2

Structure (SMILES) | Days or Hours to achieve 100% mortality (Culex quinquefasciatus [1]) [h] | Days or Hours to achieve 100% mortality (Crematogaster spp.) [days] | Days or Hours to achieve 100% mortality (Sarcophaga sp.) [h] | Days or Hours to achieve 100% mortality (Solenopsis invicta [2]) [h] | Days or Hours to achieve 100% mortality (Anopheles albimanus [3]) [days] | Days or Hours to achieve 100% mortality (Ctenocephalides felis) [days] | Days or Hours to achieve 100% mortality (Stomoxys calcitrans) [h] | Days or Hours to achieve 100% mortality (Solenopsis invicta [4]) [days] | Days or Hours to achieve 100% mortality (Anopheles albimanus [5]) [days] | Days or Hours to achieve 100% mortality (Solenopsis invicta [6]) [days] | Days or Hours to achieve 100% mortality (Musca domestica [7]) [h] | Days or Hours to achieve 100% mortality (Musca domestica [8]) [h] | Days or Hours to achieve 100% mortality (Camponotus floridanus [9]) [days] | Days or Hours to achieve 100% mortality (Aedes aegypti [10]) [days] | Days or Hours to achieve 100% mortality (Aedes aegypti [11]) [h] | Days or Hours to achieve 100% mortality (Culex quinquefasciatus [12]) [days] | Days or Hours to achieve 100% mortality (Coptotermes formosanus) [days] | Days or Hours to achieve 100% mortality (Camponotus floridanus [13]) [days]
CCN/C(=N\Nc1c(Cl)cc(C(F)(F)F)cc1Cl)C(C)(C)C [Compound I-1, N-ethyl-2,2-dimethylpropionamide-2-(2,6-dichloro-α,α,α-trifluoro-p-tolyl)-hydrazone] | 4 | 2 | 4 | 4 | 1 | 2 | 4 | 3 | 1 | 1 | 4 | 3 | 1 | 2 | 4 | 1 | 5 | 1
CCN/C(=N\Nc1c(Cl)cc(C(F)(F)F)cc1Cl)C1(C)CC1(Cl)Cl (stereo not drawn) [Compound I-2, N-Ethyl-2,2-dichloro-1-methylcyclopropanecarboxamide-2-(2,6-dichloro-α,α,α-tri-fluoro-p-tolyl)hydrazone] | 4 | 2 | 4 | 4 | 1 | 2 | 4 | 3 | 1 | 1 | 4 | 3 | 1 | 2 | 4 | 1 | 5 | 1
